Patent US20240217983A1, “GPR119 AGONISTS” (Kallyope, Inc., priority 2021, published 2024)

Biological target: T1, human GPR119 (hGPR119) (Homo sapiens, UniProt Q8TDV5)
T1 construct: expressed in transfected cells
T1 sequence (Q8TDV5 1-335): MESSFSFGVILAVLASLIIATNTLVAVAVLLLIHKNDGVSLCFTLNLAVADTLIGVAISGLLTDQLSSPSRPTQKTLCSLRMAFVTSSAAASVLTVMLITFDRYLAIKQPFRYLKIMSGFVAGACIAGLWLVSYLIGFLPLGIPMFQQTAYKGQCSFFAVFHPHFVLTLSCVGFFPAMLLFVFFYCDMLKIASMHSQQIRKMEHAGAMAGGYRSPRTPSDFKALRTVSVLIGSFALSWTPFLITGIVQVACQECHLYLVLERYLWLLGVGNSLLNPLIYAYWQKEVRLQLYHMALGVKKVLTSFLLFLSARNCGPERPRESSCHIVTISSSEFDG
Experiment: cAMP accumulation assay (Cisbio cAMP Gs dynamic HTRF kit) in CHO-K1 cells stably expressing human GPR119
Type: cell-based
Settings: 4-parameter fit; for Emax: 1 h, % activity normalized to Max and Min controls; for EC50: 60 minutes at 37° C.
Protocol: CHO-K1 cells stably expressing human GPR119 (hGPR119) were prepared by transfection of a GPR119-carrying plasmid using Lipofectamine 2000 (following manufacturer instructions). A stable cell line was established using the limiting dilution method with geneticine selection. Assay-ready frozen (ARF) cells were prepared and used throughout the study.
The assay was performed in a 384-well plate format using the cAMP Gs dynamic assay kit from Cisbio. ARF cells expressing hGPR119 were thawed, washed and then resuspended in cAMP stimulation buffer at a cell density of 1.1×10^6 cells/mL. Cells were plated at a density of ˜10,000 cells/well (9 μL/well). Dose response curves for the tested compounds were prepared in a cAMP stimulation buffer, containing 0.1% Tween 80 at 4 fold the final concentration. The compounds were then transferred to the cell plates using BRAVO (3 μL/well) and the plates were incubated for 60 minutes at 37° C./5% CO2. Detection buffer (10 μL, prepared as described in the cAMP Gs dynamic kit) were added to each well, and the plates were incubated at ambient temperature for 1 hr.
RT-FRET was measured using a ClarioSTAR plate reader, calculating the ratio between emissions at 665 nm and 620 nm (HTRF ratio). The HTRF ratio for positive (Max) and negative (Min) controls were used to normalize HTRF data and generate values for % activity. EC50 and Max activity values were determined using a standard 4-parameter fit.

Row | SMILES | Emax [%] | EC50 [nM]
1 | O=C(Cc1ccc(OCCCC2CCN(c3ncc(Cl)cn3)CC2)cc1F)N1C[C@H]2CN(C[C@H](O)[C@H](O)[C@H](O)CO)[C@H]2C1 [Example 36, 2-(4-(3-(1-(5-chloropyrimidin-2-yl)piperidin-4-yl)propoxy)-2-fluorophenyl)-1-((1R,5R)-6-((2S,3S,4R)-2,3,4,5-tetrahydroxypentyl)-3,6-diazabicyclo[3.2.0]heptan-3-yl)ethan-1-one] | 100 to 130 | 100 to 1000
2 | O=C(Cc1ccc(OCCCC2CCN(c3ncc(Cl)cn3)CC2)cc1F)N1C[C@H]2CN(C[C@H](O)[C@@H](O)[C@H](O)[C@H](O)CO)[C@H]2C1 [Example 37, 2-(4-(3-(1-(5-chloropyrimidin-2-yl)piperidin-4-yl)propoxy)-2-fluorophenyl)-1-((1R,5R)-6-((2S,3R,4R,5R)-2,3,4,5,6-pentahydroxyhexyl)-3,6-diazabicyclo[3.2.0]heptan-3-yl)ethan-1-one] | 100 to 130 | 100 to 1000
3 | O=C(Cc1ccc(OCCCC2CCN(c3ncc(Cl)cn3)CC2)cc1F)N1C[C@@H]2CN(C[C@H](O)[C@@H](O)[C@H](O)[C@H](O)CO)C[C@@H]21 [Example 39, 2-(4-(3-(1-(5-chloropyrimidin-2-yl)piperidin-4-yl)propoxy)-2-fluorophenyl)-1-((1S,5R)-3-((2S,3R,4R,5R)-2,3,4,5,6-pentahydroxyhexyl)-3,6-diazabicyclo[3.2.0]heptan-6-yl)ethan-1-one] | 100 to 130 | ≤ 100
4 | O=C(Cc1ccc(OCCCC2CCN(c3ncc(Cl)cn3)CC2)cc1F)N1C[C@H]2CN(C[C@H](O)[C@@H](O)[C@H](O)[C@H](O)CO)C[C@H]2C1 [Example 45, 2-(4-(3-(1-(5-chloropyrimidin-2-yl)piperidin-4-yl)propoxy)-2-fluorophenyl)-1-((3aR,6aS)-5-((2S,3R,4R,5R)-2,3,4,5,6-pentahydroxyhexyl)hexahydropyrrolo[3,4-c]pyrrol-2(1H)-yl)ethan-1-one] | 100 to 130 | ≤ 100
5 | O=C(Cc1ccc(OCCCC2CCN(c3ncc(Cl)cn3)CC2)cc1F)N1C[C@H]2C[C@@H]1CN2C[C@H](O)[C@H](O)[C@H](O)CO [Example 46, 2-(4-(3-(1-(5-chloropyrimidin-2-yl)piperidin-4-yl)propoxy)-2-fluorophenyl)-1-((1R,4R)-5-((2S,3S,4R)-2,3,4,5-tetrahydroxypentyl)-2,5-diazabicyclo[2.2.1]heptan-2-yl)ethan-1-one] | ≥ 130 | ≤ 100
6 | O=C(Cc1ccc(OCCCC2CCN(c3ncc(Cl)cn3)CC2)cc1F)N1C[C@H]2C[C@@H]1CN2C[C@H](O)[C@@H](O)[C@H](O)[C@H](O)CO [Example 47, 2-(4-(3-(1-(5-chloropyrimidin-2-yl)piperidin-4-yl)propoxy)-2-fluorophenyl)-1-((1R,4R)-5-((2S,3R,4R,5R)-2,3,4,5,6-pentahydroxyhexyl)-2,5-diazabicyclo[2.2.1]heptan-2-yl)ethan-1-one] | 100 to 130 | ≤ 100
7 | O=C(Cc1ccc(OCCCC2CCN(c3ncc(Cl)cn3)CC2)cc1F)N1CC2CC(C1)N2C[C@H](O)[C@H](O)[C@H](O)CO [Example 48, 2-(4-(3-(1-(5-chloropyrimidin-2-yl)piperidin-4-yl)propoxy)-2-fluorophenyl)-1-(6-((2S,3S,4R)-2,3,4,5-tetrahydroxypentyl)-3,6-diazabicyclo[3.1.1]heptan-3-yl)ethan-1-one] | ≥ 130 | ≤ 100
8 | O=C(Cc1ccc(OCCCC2CCN(c3ncc(Cl)cn3)CC2)cc1F)N1CC2CC(C1)N2C[C@H](O)[C@@H](O)[C@H](O)[C@H](O)CO [Example 49, 2-(4-(3-(1-(5-chloropyrimidin-2-yl)piperidin-4-yl)propoxy)-2-fluorophenyl)-1-(6-((2S,3R,4R,5R)-2,3,4,5,6-pentahydroxyhexyl)-3,6-diazabicyclo[3.1.1]heptan-3-yl)ethan-1-one] | 100 to 130 | ≤ 100
9 | O=C(Cc1ccc(OCCCC2CCN(c3ncc(Cl)cn3)CC2)cc1F)N1CC2CCC1CN2C[C@H](O)[C@H](O)[C@H](O)CO (stereo partly drawn) [Example 52, 2-(4-(3-(1-(5-chloropyrimidin-2-yl)piperidin-4-yl)propoxy)-2-fluorophenyl)-1-(5-((2S,3S,4R)-2,3,4,5-tetrahydroxypentyl)-2,5-diazabicyclo[2.2.2]octan-2-yl)ethan-1-one] | ≥ 130 | ≤ 100
10 | O=C(Cc1ccc(OCCCC2CCN(c3ncc(Cl)cn3)CC2)cc1F)N1CC2CCC1CN2C[C@H](O)[C@@H](O)[C@H](O)[C@H](O)CO (stereo partly drawn) [Example 53, 2-(4-(3-(1-(5-chloropyrimidin-2-yl)piperidin-4-yl)propoxy)-2-fluorophenyl)-1-(5-((2S,3R,4R,5R)-2,3,4,5,6-pentahydroxyhexyl)-2,5-diazabicyclo[2.2.2]octan-2-yl)ethan-1-one] | 100 to 130 | ≤ 100

More lines, now with the values ahead:

Row | Emax [%] | EC50 [nM] | SMILES
11 | 100 to 130 | ≤ 100 | O=C(Cc1ccc(OCCCC2CCN(c3ncc(Cl)cn3)CC2)cc1F)N1C[C@@H]2CN(C[C@H](O)[C@H](O)[C@H](O)CO)C[C@@H]21 [Example 38, 2-(4-(3-(1-(5-chloropyrimidin-2-yl)piperidin-4-yl)propoxy)-2-fluorophenyl)-1-((1S,5R)-3-((2S,3S,4R)-2,3,4,5-tetrahydroxypentyl)-3,6-diazabicyclo[3.2.0]heptan-6-yl)ethan-1-one]
12 | 100 to 130 | 100 to 1000 | O=C(Cc1ccc(OCCCC2CCN(c3ncc(Cl)cn3)CC2)cc1F)N1CCC12CN(C[C@H](O)[C@H](O)[C@H](O)CO)C2 [Example 40, 2-(4-(3-(1-(5-chloropyrimidin-2-yl)piperidin-4-yl)propoxy)-2-fluorophenyl)-1-(6-((2S,3S,4R)-2,3,4,5-tetrahydroxypentyl)-1,6-diazaspiro[3.3]heptan-1-yl)ethan-1-one]
13 | 100 to 130 | > 10000 | O=C(Cc1ccc(OCCCC2CCN(c3ncc(Cl)cn3)CC2)cc1F)N1CCC12CN(C[C@H](O)[C@@H](O)[C@H](O)[C@H](O)CO)C2 [Example 41, 2-(4-(3-(1-(5-chloropyrimidin-2-yl)piperidin-4-yl)propoxy)-2-fluorophenyl)-1-(6-((2S,3R,4R,5R)-2,3,4,5,6-pentahydroxyhexyl)-1,6-diazaspiro[3.3]heptan-1-yl)ethan-1-one]
14 | 100 to 130 | ≤ 100 | O=C(Cc1ccc(OCCCC2CCN(c3ncc(Cl)cn3)CC2)cc1F)N1CCC2(CCN(C[C@H](O)[C@H](O)[C@H](O)CO)C2)C1 (stereo partly drawn) [Example 42, 2-(4-(3-(1-(5-chloropyrimidin-2-yl)piperidin-4-yl)propoxy)-2-fluorophenyl)-1-(7-((2S,3S,4R)-2,3,4,5-tetrahydroxypentyl)-2,7-diazaspiro[4.4]nonan-2-yl)ethan-1-one]
15 | 100 to 130 | ≤ 100 | O=C(Cc1ccc(OCCCC2CCN(c3ncc(Cl)cn3)CC2)cc1F)N1CCC2(CCN(C[C@H](O)[C@@H](O)[C@H](O)[C@H](O)CO)C2)C1 (stereo partly drawn) [Example 43, 2-(4-(3-(1-(5-chloropyrimidin-2-yl)piperidin-4-yl)propoxy)-2-fluorophenyl)-1-(7-((2S,3R,4R,5R)-2,3,4,5,6-pentahydroxyhexyl)-2,7-diazaspiro[4.4]nonan-2-yl)ethan-1-one]
16 | 100 to 130 | ≤ 100 | O=C(Cc1ccc(OCCCC2CCN(c3ncc(Cl)cn3)CC2)cc1F)N1C[C@H]2CN(C[C@H](O)[C@H](O)[C@H](O)CO)C[C@H]2C1 [Example 44, 2-(4-(3-(1-(5-chloropyrimidin-2-yl)piperidin-4-yl)propoxy)-2-fluorophenyl)-1-((3aR,6aS)-5-((2S,3S,4R)-2,3,4,5-tetrahydroxypentyl)hexahydropyrrolo[3,4-c]pyrrol-2(1H)-yl)ethan-1-one]
17 | 100 to 130 | ≤ 100 | O=C(Cc1ccc(OCCCC2CCN(c3ncc(Cl)cn3)CC2)cc1F)N1CCCN(C[C@H](O)[C@H](O)[C@H](O)CO)CC1 [Example 50, 2-(4-(3-(1-(5-chloropyrimidin-2-yl)piperidin-4-yl)propoxy)-2-fluorophenyl)-1-(4-((2S,3S,4R)-2,3,4,5-tetrahydroxypentyl)-1,4-diazepan-1-yl)ethan-1-one]
18 | 100 to 130 | ≤ 100 | O=C(Cc1ccc(OCCCC2CCN(c3ncc(Cl)cn3)CC2)cc1F)N1CCCN(C[C@H](O)[C@@H](O)[C@H](O)[C@H](O)CO)CC1 [Example 51, 2-(4-(3-(1-(5-chloropyrimidin-2-yl)piperidin-4-yl)propoxy)-2-fluorophenyl)-1-(4-((2S,3R,4R,5R)-2,3,4,5,6-pentahydroxyhexyl)-1,4-diazepan-1-yl)ethan-1-one]
